From article PMC6890677, “Surface Grafted MSI-78A Antimicrobial Peptide has High Potential for Gastric Infection Management” (Scientific Reports, 2019)
Where no end group is shown, it is not given here.

Columns and labels:
[1] = tested on: H. pylori NTCC 11637; conditions: MHB + 10% FBS, 37 °C, microaerophilic, 72 h, 2 replicates in 3 independent experiments
Protocol: (§1) H. pylori human strains J99 and 26695 (provided by Department of Medical Biochemistry and Biophysics, Umeå University, Sweden), NCTC 11637 (ATCC 43504) and mouse-adapted SS1 strain (provided by Unité de Pathogenèse de Helicobacter, Institut Pasteur, France) were grown following the standard procedure. Briefly, H. pylori was cultured in Blood Agar (BA; Oxoid) supplemented with 10% of defibrinated horse blood (Probiologica) and with an antibiotic cocktail (polymyxin B, vancomycin, amphotericin B, trimethoprim; all from Sigma-Aldrich) under microaerophilic conditions (<5% O2; GenBox System, BioMérieux) at 37 °C for 48 h. Afterwards, some colonies were streaked onto fresh BA medium and kept in culture in the same conditions for another 48 h. Subsequently, bacterial inoculum was adjusted to 0.03 optical density at 600 nm (OD600), which corresponds to approximately 1 × 10^7 colony forming units (CFUs)/mL[48]. Initial inoculum was confirmed by inoculation of 10 μL drops of the bacterial suspension onto BA and CFUs were counted after 5 days of incubation in the same above-mentioned settings.
(§2) The MICs of the AMPs (Table 1) against H. pylori strains were determined using the microbroth dilution method in Mueller Hinton Broth (MHB) supplemented with 10% of inactivated Fetal Bovine Serum (FBS; Gibco) and in accordance with the Clinical Laboratory Standards Institute (CLSI) guidelines. Briefly, AMPs were diluted in 0.01% of acetic acid with 0.2% Bovine Serum Albumin (BSA; Sigma) to allow AMP protonation and avoid its aggregation, respectively, following an already established protocol. The selected AMPs concentrations ranged from 2 µg/mL up to 512 µg/mL. Incubation was performed at 37 °C in microaerophilic conditions for 72 h. The MIC was defined as the first AMP concentration that prevented visible (naked eye) bacterial growth. Two replicates of each AMP concentration were performed in three independent experiments.

[2] = tested on: H. pylori SS1; conditions: H. pylori SS1 (mouse-adapted); MHB + 10% FBS, 37 °C, microaerophilic, 72 h; 2 replicates in 3 independent experiments
Protocol: as §1, §2

[3] = tested on: H. pylori 26695; conditions: MHB + 10% FBS, 37 °C, microaerophilic, 72 h, 2 replicates in 3 independent experiments
Protocol: as §1, §2

[4] = tested on: H. pylori J99; conditions: MHB + 10% FBS, 37 °C, microaerophilic, 72 h, 2 replicates in 3 independent experiments
Protocol: as §1, §2

[5] = tested on: H. pylori SS1; format: cell-based, Helicobacter pylori; conditions: H. pylori SS1 (mouse-adapted); viability of the inoculum reduced by ≥99.9%; CFU on BA after 5 days; 2 replicates in 3 independent experiments
Protocol: as §1
(§3) The MBC was defined as the lowest AMP concentration that was able to diminish the viability of the initial bacterial inoculum by ≥99.9%. MBC determination followed the CLSI guidelines[49] but briefly, a 50 µL sample was taken from the first three lowest concentrations where no bacterial growth was observed (concentration corresponding to the MIC), serially diluted in PBS until 10^−6 and then spotted on BA. After 5 days of incubation at 37 °C in microaerophilic environment, the CFUs/mL were calculated. Two replicates of each AMP concentration were performed in three independent experiments.

[6] = tested on: S. epidermidis; assay: MIC of AMP in solution, adhesion control strain
[7] = tested on: H. pylori NTCC 11637; conditions: viability of the inoculum reduced by ≥99.9%, CFU on BA after 5 days, 2 replicates in 3 independent experiments
Protocol: as §1, §3

[8] = tested on: H. pylori 26695; conditions: viability of the inoculum reduced by ≥99.9%, CFU on BA after 5 days, 2 replicates in 3 independent experiments
Protocol: as §1, §3

[9] = tested on: H. pylori J99; conditions: viability of the inoculum reduced by ≥99.9%, CFU on BA after 5 days, 2 replicates in 3 independent experiments
Protocol: as §1, §3

Work on GIGKFLKKAKKFAKAFVKILKK [MSI-78A] yielded an MIC [1] of 128 µg/mL, an MIC [2] of 128 µg/mL and an MIC [3] of 16 µg/mL. It also gave an MIC [4] of 64 µg/mL, an MBC [5] of 256 µg/mL and an MIC [6] of 2 µg/mL. The MBC [7] was 256 µg/mL, the MBC [8] was 32 µg/mL and the MBC [9] was 128 µg/mL.

For GLLRASSVWGRKYYVDLAGCAKA [Odorranain-HP], the MIC [1] was over 512 µg/mL, the MIC [2] was over 512 µg/mL and the MIC [3] was over 512 µg/mL. The MIC [4] was over 512 µg/mL, the MBC [5] was over 512 µg/mL and the MBC [7] was over 512 µg/mL. For the same sequence, the MBC [8] was over 512 µg/mL and the MBC [9] was over 512 µg/mL.

For GIGKFLKKAKKFGKAFVKILKK [MSI-78], the MIC [1] was 256 µg/mL, the MIC [2] was 128 µg/mL and the MIC [3] was 64 µg/mL. The MIC [4] was 256 µg/mL, the MBC [5] was over 512 µg/mL and the MBC [7] was over 512 µg/mL. The MBC [8] was 128 µg/mL and the MBC [9] was over 512 µg/mL.
